The text below walks through data of patent US20230270752A1, “METHODS OF TREATING PHELAN MCDERMID SYNDROME USING FARNESYL DIBENZODIAZEPINONES” (AMO Pharma Ltd., priority 2017, published 2023).

Entries after “also recorded” stand apart in the source; their conditions may differ.

In assay [1] the test system is Shank3b KO transgenic model of PMS. Description: Light dark box test (anxiety). Type of assay: in vivo, mice. Conditions: single dose 30 mg/kg i.p., 4 hours before testing. On the procedure: (§1) Shank3b^-/- homozygous mice with deletions of exons 13-16, initially obtained from the Jackson Laboratory, and wild type (WT) littermates were generated on a C57BL/6J background and repeatedly backcrossed onto a C57BL/6J background for more than eight generations. The resulting Shank3 knockout (KO) mice were housed in groups of the same genotype in a temperature and humidity controlled room with a 12-h light-dark cycle (lights on 7 am to 7 pm). Room temperature and humidity were recorded continuously in the holding room. Testing was conducted during the light phase. Food and water were available ad libitum. Testing was conducted on Shank3 knockout mice and their wild type littermates, with N = 10 mice per treatment group, tested at two months of age during behavioral experiments. Mice were housed in commercial plastic cages and experiments were conducted in line with the requirements of the UK Animals (Scientific Procedures) Act, 1986. All experiments were conducted with experimenters blind to genotype and drug treatment. Animals were allowed a minimum acclimatization period of one week prior to performing any experiment. Only healthy animals were used. No prophylactic or therapeutic treatment was to be administered during the acclimatization period. […]

Assay [2] shares this test system. Description: Audiogenic seizure threshold test. Type of assay: in vivo. The settings on record: Shank3b KO mice, single dose 30 mg/kg i.p., 124 db 60 s stimulus. On the procedure:
as §1
Seizure threshold as assessed by audiogenic seizures was assessed in a separate cohort with N = 10 per group. […]

For assay [3] the test system is unchanged. The assay is described as follows: Marble burying test (species typical behaviors). The settings on record: single dose 30 mg/kg i.p. Type of assay: in vivo, mice. On the procedure:
as §1
Day 5: Activities of daily living / species typical behaviors as assessed by marble burying. […]

Assay [4] has as its system person with a genetically confirmed diagnosis of Phelan McDermid Syndrome. Description: Clinical assessment of seizures and behavior in a Phelan McDermid Syndrome subject. The format is in vivo. Conditions: human PMS subject. On the procedure:
A person with a genetically confirmed diagnosis of Phelan McDermid Syndrome was administered AMO-01.
(§2) The study drug was prepared from a sterile bulk formulation containing 32.8 mg/mL (3.15% w/w) of the active drug substance dissolved in sterile 0.9% saline solution to produce an isotonic final dosing formulation. Each drug product vial contained 70 mg of AMO-01 drug substance in 2.134 mL of formulation (plus 2% overage). This corresponded to a total drug content of 71.4 mg of active drug substance per 2.176 mL of formula. AMO-01 was administered as a single dose via intravenous infusions over a 6 hour period, with the total dose administered as 120 mg/m^2.
Seizure frequency and Visual Evoked Potentials (VEPs) were assessed alongside clinical measures. VEPs provide a noninvasive technique to evaluate the functional integrity of visual pathways in the brain from the retina to the visual cortex via the optic nerve/optic radiations. The VEP is recorded from the head’s surface, over the visual cortex, and is extracted from ongoing EEG through signal averaging. VEPs reflect the sum of excitatory and inhibitory postsynaptic potentials occurring on apical dendrites (Zemon et al., 1986) which modulate excitatory and inhibitory signals received by the pyramidal cells. The major positive and negative peaks and troughs in VEP waveforms reflect different cellular events. The contrast-reversing checkerboard stimulus used in this study produces a positive peak at approximately 60 ms (P0 or P60), reflecting activation of the primary visual cortex from the lateral geniculate nucleus. A negative peak at approximately 75 ms (N0 or N75) reflecting depolarization and glutamatergic postsynaptic activity spreading to the superficial layers of primary visual cortex, and a positive peak at approximately 100 ms (P1 or P100) reflecting superficial hyperpolarization and GABAergic activity (Zemon et al., 1980). VEPs have been used in clinical trials; for example, an antiepileptic drug (gabapentin; Conte et al., 2009) and an infant formula (O′Connor et al., 2009). Both received FDA approval based in part on positive findings from VEP studies. Data from ongoing clinical trials at Mount Sinai provide support for use of VEPs as a measure of treatment response. Assessments of clinical response were made before treatment, after six hours of treatment, and one week, two weeks and four weeks after treatment according to the schematic in FIG. 8.

Assay [5] has as its system Shank3b KO transgenic model of PMS. The assay is described as follows: Social recognition and response to social novelty test. Conditions: single dose 30 mg/kg i.p. The format is in vivo, mice. On the procedure: as §1
For assay [6] the test system is unchanged. Description: Beam walking test (sensory motor function). Type of assay: in vivo, mice. Conditions: single dose 30 mg/kg i.p. On the procedure: as §1
Day 4: Sensory motor function as assessed by beam walking tests. […]

Assay [7] deals with person with a genetically confirmed diagnosis of Phelan McDermid Syndrome. Description: Visual Evoked Potentials in a Phelan McDermid Syndrome subject. Type of assay: in vivo. The settings on record: human PMS subject, 120 mg/m^2 i.v. over 6 hours. On the procedure: as §2
Seizure frequency and Visual Evoked Potentials (VEPs) were assessed alongside clinical measures. VEPs provide a noninvasive technique to evaluate the functional integrity of visual pathways in the brain from the retina to the visual cortex via the optic nerve/optic radiations. The VEP is recorded from the head’s surface, over the visual cortex, and is extracted from ongoing EEG through signal averaging. VEPs reflect the sum of excitatory and inhibitory postsynaptic potentials occurring on apical dendrites (Zemon et al., 1986) which modulate excitatory and inhibitory signals received by the pyramidal cells. The major positive and negative peaks and troughs in VEP waveforms reflect different cellular events. […]

The subject of assay [8] is Shank3b KO transgenic model of PMS. Description: Excessive self-grooming test (self-injurious behavior). Type of assay: in vivo, mice. Conditions: single dose 30 mg/kg i.p. On the procedure: as §1, with “experiment.” for “experiment. Only healthy animals were used. No prophylactic or therapeutic treatment was to be administered during the acclimatization period.”
Day 2: Excessive grooming leading to skin lesions. […] During this test, time spent grooming in all sequences: face-wiping, scratching/rubbing of head and ears, and full-body grooming was scored by an observer blind to genotype during the scoring.

For assay [9], the system named is Shank3 knockout transgenic mouse model of Phelan McDermid Syndrome. Description: Behavioral testing battery overall (five days after single dose). Type of assay: in vivo, mice. On the procedure:
Shank3b^-/- homozygous mice with deletions of exons 13-16, initially obtained from the Jackson Laboratory, and wild type (WT) littermates were generated on a C57BL/6J background and repeatedly backcrossed onto a C57BL/6J background for more than eight generations. The resulting Shank3 knockout (KO) mice were housed in groups of the same genotype in a temperature and humidity controlled room with a 12-h light-dark cycle (lights on 7 am to 7 pm). Room temperature and humidity were recorded continuously in the holding room. Testing was conducted during the light phase. Food and water were available ad libitum. Testing was conducted on Shank3 knockout mice and their wild type littermates, with N = 10 mice per treatment group, tested at two months of age during behavioral experiments. Mice were housed in commercial plastic cages and experiments were conducted in line with the requirements of the UK Animals (Scientific Procedures) Act, 1986. All experiments were conducted with experimenters blind to genotype and drug treatment. Animals were allowed a minimum acclimatization period of one week prior to performing any experiment. Only healthy animals were used. No prophylactic or therapeutic treatment was to be administered during the acclimatization period.
AMO-01 from AMO Pharma Ltd was administered to mice as follows: • A. AMO-01 at a single dose of 30 mg/kg intraperitoneally in a vehicle of ethanol, PEG 400 and polysorbate 80 and 5% dextrose • B. Vehicle dosed intraperitoneally as 15 ml/kg Groups of N = 10 mice were treated 4 hours before testing on the first day of testing. Five days of testing were undertaken following the single intraperitoneal dose administered on Day 1.
The following groups were studied: • 1. Shank3b^-/- knockout mice + vehicle, N = 10 • 2. Shank3b^-/- knockout mice + AMO-01 30 mg/kg i.p., N = 10 • 3. Wild Type litter mates + vehicle, N = 10 • 4. Wild Type litter mates + AMO-01 30 mg/kg i.p., N = 10
The following tests were administered.

Assay [10] deals with induced pluripotent stem (IPS) cell lines derived from PMS patients. The settings on record: PMS patient-derived IPS cell lines; cited from earlier work.
The next assay concerns Shank3 knockout mouse. Conditions: Shank3 exon 4-9 deletion mouse; cited from earlier work.
Another assay concerns Shank3 knockout mice. The settings on record: placebo controlled, 12 weeks of treatment; cited from earlier work.
Setting [11] is: Shank3 knockout mice, 30 mg/kg i.p. single dose.

As for `CC(C)=CCC/C(C)=C/CC/C(C)=C/CN1C(=O)c2cccc(O)c2Nc2c(O)cc(O)cc21` [AMO-01, 10-farnesyl-4,6,8-trihydroxy-dibenzodiazepin-11-one], the “Anxiety deficit in light dark box test” value in assay [1] (Shank3b-/- KO mice, Day 1) is on record as “significantly reduced the deficit shown in Shank3b^-/- mice (p <0.0001) although this reversal was not complete”. The “Effect on light dark box anxiety behavior” value in assay [1] (Wild Type mice) is on record as “no significant effect”. Further, the Audiogenic seizure threshold result in [2] is on record as “rescue of lowered audiogenic seizure threshold”. Besides, the Marble burying deficit entry in assay [3] (Shank3b-/- KO mice, Day 5) is given as “significantly reduced the deficit shown in Shank3b^-/- KO mice (p <0.0001). This reversal was complete”. Further, the “Effect on marble burying behavior” value in [3] (Wild Type mice) was “no significant effect”. Moreover, in assay [4] (120 mg/m^2 i.v. over 6 hours), the “Recurrence of seizure events after infusion” value is given as “Approximately three weeks after the study drug infusion”; the “Social, behavioral and motor changes during seizure-free period” value was “became more social, more engaged (e.g. better eye contact), more cooperative, less restless, and their motor skills also improved”. Moreover, the “Seizure occurrence after infusion” value in assay [4] (120 mg/m^2 i.v. over 6 hours, baseline 3 to 4 seizures a week) was “seizures stopped altogether for the next two weeks”. For the same compound, the “Impending seizure episode at time of infusion” value in assay [4] (single i.v. infusion 120 mg/m^2 over 6 hours) is “appeared to completely abort the impending seizure episode”. Further, the “Response to social novelty (time in interaction with familiar or novel mouse)” value in assay [5] (Shank3b KO mice, Day 3, 30 mg/kg) is “rescue of response to social novelty; also recorded: normalizes the differential response to social novelty”. Besides, the “Response to social novelty (time in interaction with familiar or novel mouse)” value in [5] (Wild Type mice) was “not affected by treatment”. The Beam walking deficit entry in assay [6] (Shank3b-/- KO mice, Day 4) is reported as “significantly reduced the deficit shown in Shank3b^-/- mice (p <0.0001). This reversal was complete”. In addition, the “Effect on beam walking behavior” value in assay [6] (Wild Type mice) is recorded as “no significant effect”. In addition, in [7], the “Visual Evoked Potentials before vs six hours after infusion” value is reported as “ameliorated by treatment”. The Excessive self-grooming deficit entry in assay [8] (Shank3b-/- KO mice, Day 2) was “significantly reduced the deficit shown in Shank3b^-/- mice (p <0.0001). This reversal was complete”. For the same compound, the Effect on self-grooming entry in assay [8] (Wild Type mice) is on record as “no significant effect”. Also, in assay [9] (setting [11]), the “Deficits across anxiety, grooming, sociability, sensori-motor and species typical behaviour domains” value was “reversed deficits in all of these domains”; the “Duration of rescue of the phenotype after a single dose” value is reported as “persisted for at least five days”. In addition, in assay [9] (Wild Type mice, 30 mg/kg i.p.), the “Effect across anxiety, grooming, sociability, sensori-motor function, species typical behaviours, cognition” value is “without effect”.
For the compound “IGF-1: insulin-like growth factor 1 (IGF-1)”, the “Impaired post-synaptic AMPA and NMDA receptor responses / excitatory synapse deficits” value in assay [10] is on record as “rescued”. In addition, the “Phenotype / deficits of Shank3 knockout mouse” value in the assay on Shank3 knockout mouse was “deficits in this model reversed; also recorded: rescue of the phenotype”. The “Social, repetitive and aberrant behaviors” value in the assay on Shank3 knockout mice was “improvements in social, repetitive and aberrant behaviors”.
